Assay results reported in patent US4556660A, “N-(Bicyclic heterocyclyl)-4-piperidinamines” (Janssen Pharmaceutica N.V., priority 1983, dated 1985).

Experiments:
[1] = test system: compound 48/80-induced lethality; experiment: Protection of rats from compound 48/80-induced lethality; format: in vivo, Male rats of an inbred Wistar strain; conditions: Rattus norvegicus, 4 h, read-out: compound 48/80 lethality test rats-ED50
[2] = test system: serotonin; compound 48/80-induced gastric lesions; experiment: Antagonistic activity on the effects of serotonin in the gastric lesion test (lesions induced by compound 48/80); format: in vivo, Male rats of a Wistar inbred strain; conditions: Rattus norvegicus, po; read-out: gastric lesion test ED50
Protocol: Antagonistic activity on the effects of serotonin in the gastric lesion test
Male rats of a Wistar inbred strain, weighing 220-250 g, were starved overnight, water being available ad libitum. The test compounds were administered orally as a solution or as a suspension in aqueous medium. A control rat and a "blank" rat received the test compound. One hour later 5-[4-(diphenylmethyl)-1-piperazinylmethyl]-1-methyl-1H-benzimidazole-2-methanol was administered subcutaneously to all rats at the dose of 2.5 mg/kg.
Four hours after the intravenous injection of compound 48/80, the rats were decapitated and the stomachs were removed. Subsequently the stomachs were inspected for distension and contents (blood, fluid, food) and thoroughly rinsed. The macroscopic lesions were scored from 0 to +++, 0 corresponding to complete absence of visible lesions and the highest score corresponding to reddish rough patches covering more than half the glandular area.

[3] = test system: compound 48/80-induced cyanosis, lesions in the glandular area of the stomach and abnormal gastric distension; conditions: rats injected with compound 48/80; cited from earlier work

O=C(O)/C=C/C(=O)O.O=C(O)/C=C/C(=O)O.O=C(OCCN1CCC(Nc2nc3ccccc3n2Cc2ccc(F)cc2)CC1)c1ccc2ccccc2n1 [Compound 112, [2-[4-[[1-[(4-fluorophenyl)methyl]-1H-benzimidazol-2-yl]amino]-1-piperidinyl]ethyl]-2-quinolinecarboxylate (E)-2-butenedioate (1:2)]
ED50 [1]: 0.04 mg/kg | ED50 [2]: 0.63 mg/kg

Nc1nccnc1C(=O)NCCN1CCC(Nc2nc3ccccc3n2Cc2ccc(F)cc2)CC1 [Compound 113, 3-amino-N-[2-[4-[[1-[(4-fluorophenyl)methyl]-1H-benzimidazol-2-yl]amino]-1-piperidinyl]ethyl]-2-pyrazinecarboxamide]
ED50 [1]: 0.04 mg/kg | ED50 [2]: 0.16 mg/kg

O=C(NCCN1CCC(Nc2nc3ccccc3n2Cc2ccc(F)cc2)CC1)c1ccc(Cl)nc1.O=C(O)/C=C/C(=O)O.O=C(O)/C=C/C(=O)O [Compound 116, 6-chloro-N-[2-[4-[[1-[(4-fluorophenyl)methyl]-1H-benzimidazol-2-yl]amino]-1-piperidinyl]ethyl]-3-pyridinecarboxamide (E)-2-butenedioate (1:2)]
ED50 [1]: 0.31 mg/kg | ED50 [2]: 2.5 mg/kg

N#CCN1CCC(Nc2nc3ncccc3n2Cc2ccc(F)cc2)CC1 [Intermediate 79]
ED50 [1]: 0.16 mg/kg | ED50 [2]: 0.63 mg/kg

CN(C)CCCSc1ccccc1NC(=O)/C=C/c1ccccc1 [cinanserin]
prevention of cyanosis of ears and extremities, lesions in the glandular area of the stomach and abnormal gastric distension [3]: prevent completely

CN1CCC(=C2c3ccccc3C=Cc3ccccc32)CC1 [cyproheptadine]
prevention of cyanosis of ears and extremities, lesions in the glandular area of the stomach and abnormal gastric distension [3]: prevent completely

CN1C[C@H](CNC(=O)OCc2ccccc2)C[C@@H]2c3cccc4c3c(cn4C)C[C@H]21 [metergoline]
prevention of cyanosis of ears and extremities, lesions in the glandular area of the stomach and abnormal gastric distension [3]: prevent completely

CC[C@@H](CO)NC(=O)[C@@H]1C=C2c3cccc4c3c(cn4C)C[C@H]2N(C)C1 [methysergide]
prevention of cyanosis of ears and extremities, lesions in the glandular area of the stomach and abnormal gastric distension [3]: prevent completely

CN1CCN2c3ccccc3Cc3ccccc3C2C1 (stereo not shown) [mianserin]
prevention of cyanosis of ears and extremities, lesions in the glandular area of the stomach and abnormal gastric distension [3]: prevent completely

NC(=O)C1(N2CCCCC2)CCN(CCCC(=O)c2ccc(F)cc2)CC1 [pipamperone]
prevention of cyanosis of ears and extremities, lesions in the glandular area of the stomach and abnormal gastric distension [3]: prevent completely

CN1CCC(=C2c3ccccc3CCc3sccc32)CC1 [pizotifen]
prevention of cyanosis of ears and extremities, lesions in the glandular area of the stomach and abnormal gastric distension [3]: prevent completely

O=C(CCCN1CCC2(CC1)C(=O)NCN2c1ccccc1)c1ccc(F)cc1 [spiperone]
prevention of cyanosis of ears and extremities, lesions in the glandular area of the stomach and abnormal gastric distension [3]: prevent completely
